{
  "source": "paper PMC8359378",
  "about": "(British Journal of Clinical Pharmacology, 2021)",
  "origin": "cited, not measured here",
  "key": {"[1]": {"conditions": "intravenous infusion; cited from earlier work"}, "[2]": {"tested_on": "FXI and FXIa", "conditions": "subcutaneous administration; cited from earlier work"}, "[3]": {"tested_on": "factor XIa activity", "conditions": "cited from earlier work"}},
  "data": [
    {"molecule": "CN1CCN(c2cccc3c2CCN(C(=O)/C=C/c2c(-n4cnnn4)ccc(Cl)c2F)[C@@H]3C(=O)Nc2ccc(C(=O)O)cc2)C(=O)C1", "note": "[BMS‐962212]", "values": [
      {"measurement": "patients in the active treated groups reporting AEs", "setting": "[1]", "result": 17.6, "unit": "%"},
      {"measurement": "patients reporting infusion site pain or irritation", "setting": "[1]", "result": 5.9, "unit": "%"}
    ]},
    {"molecule": "MAA868: fully human antibody which binds both FXI and FXIa (antibody, chains of the INN, looked up, V domains shown) VH: QVQLLESGGGLVQPGGSLRLSCAASGFTFSTAAMSWVRQAPGKGLEWVSGISGSGSSTYYADSVKGRFTISRDNSKNTLYLQMNSLRAEDTAVYYCARELSYLYSGYYFDYWGQGTLVTVSS VL: QSVLTQPPSASGTPGQRVTISCSGSSSNIGSNDVSWYQQLPGTAPKLLIYKNYNRPSGVPDRFSGSKSGTSASLAISGLQSEDEADYYCSAWDQRQFDVVFGGGTKLTVL", "values": [
      {"measurement": "effect on aPTT and FXI", "setting": "[2]", "result": "robust and sustained prolongation of aPTT and FXI suppression"}
    ]},
    {"molecule": "Osocimab: fully human IgG1 monoclonal antibody targeting coagulation factor XIa (antibody, chains of the INN, looked up, V domains shown) VH: EVQLLESGGGLVQPGGSLRLSCAASGFTFSQYGMDWVRQAPGKGLEWVSGIGPSGGSTVYADSVKGRFTISRDNSKNTLYLQMNSLRAEDTAVYYCTRGGPYYYYGMDVWGQGTTVTVSS VL: DIQMTQSPSSLSASVGDRVTITCQASQDISNYLNWYQQKPGKAPKLLIYDASNLETGVPSRFSGSGSGTDFTFTISSLQPEDIATYYCQQADSFPVTFGGGTKVEIK", "values": [
      {"measurement": "effect on apparent factor XIa activity and aPTT", "setting": "[3]", "result": "reduced apparent factor XIa activity and prolonged aPTT in a dose‐dependent manner"}
    ]}
  ]
}
